Measured values reported in PMC9822021, “Biological Activity of Amidino-Substituted Imidazo [4,5-b]pyridines” (Molecules, 2022).
Converted amounts (≈) assume the structure as drawn.

Key:
[1] = test system: Influenza H3N2 (A/HK/7/87); experiment: Antiviral CPE reduction assay; assay type: cell-based; conditions: Influenza A virus, MDCK cells
[2] = test system: Influenza H1N1 (A/Ned/378/05); experiment: Antiviral CPE reduction assay; assay type: cell-based; conditions: Influenza A virus, MDCK cells
[3] = test system: Influenza B (B/Ned/537/05); experiment: Antiviral CPE reduction assay; assay type: cell-based; conditions: Influenza B virus, MDCK cells
in vitro [4] = conditions: dog
in vitro [5] = conditions: human
[6] = test system: NCI-H460 lung carcinoma cells; experiment: In vitro antiproliferative activity, MTS proliferation assay; assay type: cell-based; conditions: Homo sapiens, 72 h
Text: (§1) Human cancer cell lines used in this manuscript, namely Capan-1, HCT-116, NCI-H460, LN-229, HL-60, K-562, Z-138, SW620, PC3 and HeLa, were acquired from the American Type Culture Collection (ATCC, Manassas, VA, USA), while the DND-41 cell line was purchased from the Deutsche Sammlung von Mikroorganismen und Zellkulturen (DSMZ Leibniz-Institut, Germany). Culture media were purchased from Gibco Life Technologies, USA, and supplemented with 10% fetal bovine serum (HyClone, GE Healthcare Life Sciences, Chicago, IL, USA), except for the media for SW620, PC3 and HeLa cells, which were purchased from Sigma.
(§2) Adherent cell lines LN-229, HCT-116, NCI-H460 and Capan-1 cells were seeded at a density between 500 and 1500 cells per well in 384-well tissue culture plates (Greiner). […]. Cells were incubated for 72 h with compounds and were then analyzed using the CellTiter 96® AQueous One Solution Cell Proliferation Assay (MTS) reagent (Promega) according to the manufacturer’s instructions. Absorbance of the samples was measured at 490 nm using a SpectraMax Plus 384 (Molecular Devices), and OD values were used to calculate the 50% inhibitory concentration (IC50). Compounds were tested in two independent experiments. SW620, PC3 and HeLa cells were seeded in 96-well microtiter plates at 1 × 10^4 to 3 × 10^4 cells/mL, depending on the doubling times of the specific cell line. Test agents were then added in five 10-fold dilutions (10^−8 to 10^−4 M). Working dilutions were freshly prepared on the day of testing. After 72 h of incubation, the cell growth rate was evaluated using the MTT assay as described previously. Absorbance of the samples was measured at 570 nm, and OD values were used to calculate the 50% inhibitory concentration (IC50). Each test was performed in quadruplicate in at least two individual experiments.

[7] = test system: HCT-116 colorectal carcinoma cells; experiment: as above; assay type: cell-based; conditions: Homo sapiens, 72 h
Text: as §1, §2

[8] = test system: LN-229 glioblastoma cells; experiment: as above; assay type: cell-based; conditions: Homo sapiens, 72 h
Text: as §1, §2

[9] = test system: K-562 chronic myeloid leukemia cells; experiment: as above; assay type: cell-based; conditions: Homo sapiens, K562, 72 h
Text: as §1, §2

[10] = test system: HL-60 acute myeloid leukemia cells; experiment: as above; assay type: cell-based; conditions: Homo sapiens, 72 h
Procedure: (§3) Culture media were purchased from Gibco Life Technologies, USA, and supplemented with 10% fetal bovine serum (HyClone, GE Healthcare Life Sciences, Chicago, IL, USA), except for the media for SW620, PC3 and HeLa cells, which were purchased from Sigma.
(§4) Cells were incubated for 72 h with compounds and were then analyzed using the CellTiter 96® AQueous One Solution Cell Proliferation Assay (MTS) reagent (Promega) according to the manufacturer’s instructions. […] Compounds were tested in two independent experiments. SW620, PC3 and HeLa cells were seeded in 96-well microtiter plates at 1 × 10^4 to 3 × 10^4 cells/mL, depending on the doubling times of the specific cell line. Test agents were then added in five 10-fold dilutions (10^−8 to 10^−4 M). Working dilutions were freshly prepared on the day of testing. After 72 h of incubation, the cell growth rate was evaluated using the MTT assay as described previously. […] Each test was performed in quadruplicate in at least two individual experiments.

[11] = test system: Capan-1 pancreatic adenocarcinoma cells; experiment: as above; assay type: cell-based; conditions: Homo sapiens, 72 h
Procedure: as §3, §4

[12] = test system: DND-41 acute lymphoblastic leukemia cells; experiment: as above; assay type: cell-based; conditions: Homo sapiens, DND41, 72 h
Procedure: as §3, §4

S. aureus ATCC 29213 = experiment: Antibacterial activity in vitro, broth microdilution; assay type: cell-based; conditions: Staphylococcus aureus, ATCC29213; broth microdilution (CLSI), 16–24 h at 37 °C
Procedure: (§5) Synthesized compounds were prepared as 10 mM DMSO solutions and tested in a final concentration range of 100–0.2 µM [34].
(§6) Broth microdilution testing was performed according to CLSI (Clinical Laboratory Standards Institute) guidelines. MIC (minimal inhibitory concentration) values were defined as the last tested concentration of the compound at which there was no visible growth of bacteria. Inoculums for each microorganism were prepared using the direct colony suspension method, where broth solutions that achieved turbidity equivalent to 0.5 McFarland standard were additionally diluted 100× with Ca-adjusted MH media (Becton Dickinson).

E. coli ATCC 25922 = experiment: as above; assay type: cell-based; conditions: Escherichia coli, ATCC25922; broth microdilution (CLSI), 16–24 h at 37 °C
Procedure: as §5, §6

S. Pneumoniae ATCC 49619 = experiment: as above; assay type: cell-based; conditions: Streptococcus pneumoniae, ATCC49619; broth microdilution (CLSI), 16–24 h at 37 °C
Procedure: as §5, §6

[13] = test system: Z-138 non-Hodgkin lymphoma cells; experiment: In vitro antiproliferative activity, MTS proliferation assay; assay type: cell-based, human; conditions: Homo sapiens, Z-138, 72 h
Text: as §1, §2

E. coli Efflux Del = experiment: microbe, parasite or virus in culture; assay type: cell-based; conditions: Escherichia coli, read-out: MIC E. coli Efflux Del
Procedure: as §5, §6

[14] = test system: PC3 prostate carcinoma cells; experiment: In vitro antiproliferative activity, MTT assay; assay type: cell-based; conditions: Homo sapiens, 72 h
Text: as §1, §2

[15] = test system: SW620 colon carcinoma cells; experiment: In vitro antiproliferative activity, MTT assay; assay type: cell-based; conditions: Homo sapiens, SW-620, 72 h
Text: as §1, §2

[16] = test system: HeLa cervical carcinoma cells; experiment: In vitro antiproliferative activity, MTT assay; assay type: cell-based; conditions: Homo sapiens, 72 h
Text: as §1, §2

in vitro [17] = conditions: human; remark: listed apart in the source

Compound	CC50 (in vitro [4]) [µM]	melting point [°C]	CC50 (in vitro [5]) [µM]	IC50 [6] [µM]	IC50 [7] [µM]	IC50 [8] [µM]	IC50 [9] [µM]	IC50 [10] [µM]	IC50 [11] [µM]	IC50 [12] [µM]	MIC (S. aureus ATCC 29213) [µM]	MIC (E. coli ATCC 25922) [µM]	MIC (S. Pneumoniae ATCC 49619) [µM]	IC50 [13] [µM]	MIC (E. coli Efflux Del) [µM]	IC50 [14] [µM]	IC50 [15] [µM]	IC50 [16] [µM]	CC50 (in vitro [17]) [µM]	further results
CC(=O)N[C@H]1[C@H]([C@H](O)[C@H](O)CO)OC(C(=O)O)=C[C@@H]1N=C(N)N [Zanamivir, zanamivir, reference compound]	> 100																			EC50 [1]: 16.8 ± 6.8 µM; EC50 [2]: 130 ± 40 nM; EC50 [3]: 50 ± 30 nM
Cl.N=C(N)c1ccc(-c2nc3ncccc3[nH]2)cc1 [Compound 9, 4-(1H-Imidazo[4,5-b]pyridin-2-yl)benzimidamide Hydrochloride]	> 100	> 300	> 100	> 100	> 100	> 100	> 100	> 100	> 100	> 100	> 64	> 64	> 64	> 100	> 64	> 100	> 100	> 100	> 100	
COc1cccc2c1C(=O)c1c(O)c3c(c(O)c1C2=O)C[C@@](O)(C(=O)CO)C[C@@H]3O[C@H]1C[C@H](N)[C@H](O)[C@H](C)O1 [doxorubicine, reference compound]																0.13 ± 0.02	0.02	0.16 ± 0.05		
COc1cc([C@@H]2c3cc4c(cc3[C@@H](O[C@@H]3O[C@@H]5CO[C@@H](C)O[C@H]5[C@H](O)[C@H]3O)[C@H]3COC(=O)[C@H]23)OCO4)cc(OC)c1O [etoposide, reference compound]																11.6 ± 1.9	0.63 ± 0.1	0.004 ± 0.001		
Cl.c1cnc2nc(-c3ccc(C4=NCCCN4)cc3)[nH]c2c1 [Compound 12, 2-(4-(1H-Imidazo[4,5-b]pyridin-2-yl)phenyl)-3,4,5,6-tetrahydropyrimidin-1-ium Chloride]	> 100	> 300	> 100	> 100	> 100	> 100	> 100	> 100	> 100	> 100	> 64	> 64	> 64	> 100	> 64	> 100	> 100	> 100	> 100	
CC(C)NC(=N)c1ccc(-c2nc3ncc(Br)cc3[nH]2)cc1.Cl [Compound 16, 4-(6-Bromo-1H-imidazo[4,5-b]pyridin-2-yl)-N-isopropylbenzimidamide Hydrochloride]	71.2 ± 40.8	> 300		> 100	77.2 ± 19.1	52.4 ± 8.1	53.6 ± 2.8	91.4 ± 5.1	52.7 ± 2.9	11.9 ± 0.1	> 64	> 64	> 64	12.1 ± 0.8	> 64	13.3 ± 2.6	7.4 ± 1.1	13.3 ± 4.3		
Cn1c(-c2ccccc2)nc2cc(Br)cnc21 [Compound 18, 6-Bromo-3-methyl-2-phenyl-3H-imidazo[4,5-b]pyridine]	> 100	214 to 215	> 100	> 100	> 100	> 100	> 100	> 100	> 100	> 100	> 64	> 64	> 64	> 100	> 64	> 100	> 100	48 ± 0.2	> 100	
CC(=O)O[C@@]12CO[C@@H]1C[C@H](O)[C@@]1(C)C(=O)[C@H](O)C3=C(C)[C@@H](OC(=O)[C@H](O)[C@@H](NC(=O)OC(C)(C)C)c4ccccc4)C[C@@](O)([C@@H](OC(=O)c4ccccc4)[C@H]21)C3(C)C [DTX, docetaxel, reference compound]				0.0034	0.0025	0.0041 ± 0.003	0.0085 ± 0.001	0.0022	0.0038 ± 0.003	0.0025				0.0023						
C[C@@H](O)[C@H]1C(=O)N2C(C(=O)O)=C(S[C@@H]3CN[C@H](C(=O)N(C)C)C3)[C@H](C)[C@H]12 [Meropenem, meropenem, reference compound]											< 0.125	< 0.125	< 0.125		< 0.125					
Cn1c(-c2ccc(C#N)cc2)nc2cc(Br)cnc21 [Compound 19, 4-(6-Bromo-3-methyl-3H-imidazo[4,5-b]pyridin-2-yl)benzonitrile]	> 100	234 to 235	> 100	> 100	> 100	> 100	> 100	> 100	> 100	> 100	> 64	> 64	> 64	> 100	> 64	28.8 ± 15	63.8 ± 7.4	26.1 ± 0.01	> 100	
CC1(C)S[C@@H]2[C@H](NC(=O)[C@H](N)c3ccccc3)C(=O)N2[C@H]1C(=O)O [Ampicillin, ampicillin, reference compound]											1 (≈ 0.349 µg/mL)	1 (≈ 0.349 µg/mL)	< 0.125							
N#Cc1ccc(-c2nc3ncccc3[nH]2)cc1 [Compound 6, 4-(1H-Imidazo[4,5-b]pyridin-2-yl)benzonitrile]	> 100		> 100	> 100	> 100	> 100	> 100	> 100	> 100	> 100	> 64	> 64	> 64	> 100	> 64	> 100	> 100	28.9 ± 7.2	> 100	
CC(C)(O/N=C(\C(=O)N[C@@H]1C(=O)N2C(C(=O)[O-])=C(C[n+]3ccccc3)CS[C@H]12)c1csc(N)n1)C(=O)O [Ceftazidime, ceftazidime, reference compound]											16 (≈ 8.75 µg/mL)	0.25 (≈ 0.137 µg/mL)	0.25 (≈ 0.137 µg/mL)		0.25 (≈ 0.137 µg/mL)					
CN[C@@H]1C[C@H]2O[C@@](C)([C@@H]1OC)n1c3ccccc3c3c4c(c5c6ccccc6n2c5c31)C(=O)NC4 [STS, staurosporine, reference compound]				0.0448 ± 0.004	0.0701 ± 0.006	0.0668 ± 0.016	0.0374 ± 0.006							0.0484 ± 0.007						
